The results in this text go back to patent US4336192A, “5,6-Dihydro-11-alkylene-morphanthridin-6-ones” (BASF Aktiengesellschaft, priority 1979, dated 1982).

Entries after “also recorded” stand apart in the source; their conditions may differ. Counter-ions that a name gives are not always drawn. Like-named read-outs stand apart in the source and are kept apart here. A value given as a limit tells only on which side of the number the result lay.

The nature of series [1]: Acute toxicity. Conditions: mouse, in vivo, ip, read-out: Toxicity LD 50. The protocol: The substances are administered intraperitoneally to groups of 5-10 female NMRI mice.
Series [2] relates to female NMRI mice. The experiment in a line: Anti-cholinergic effect: protection against death from Physostigmin. The series is classed as in vivo. Conditions: for ED50: Mus musculus, read-out: Anti-cholinergic effect ED 50%, oral, 30 min before Physostigmin 0.825 mg/kg s.c., female NMRI mice, dose which protects 50% of animals against death; for Anti-cholinergic effect (in words): result in words, Physostigmin antagonism; for Anti-cholinergic effect R.A. (relative activity): Clozapin = 1.00. The procedure: 3. Anti-cholinergic effect
A lethal dose (0.825 mg/kg) of Physostigmin is administered subcutaneously to groups of 10 female NMRI mice. The test substances are administered orally 30 minutes before administering the Physostigmin.

The subject of series [3] is female NMRI mice. The experiment in a line: Analgesic effect: D'amour and Smith tail-flick method. The series is classed as in vivo. Particulars: result in words.
Procedure: The analgesic effect is determined by means of the D'amour and Smith (1941) tail-flick method. In this, the substances are administered intraperitoneally to groups of 10 female NMRI mice. The pain reaction is triggered 30 minutes after administration. The reaction time, until the tail is flicked out of the way after exposure to a focused light beam, is measured.
Series [4] has as its system female Sprague-Dawley rats. Kind of series: Apomorphine-antagonistic effect: apomorphine-triggered jaw motions (mandibulogram). The series is classed as in vivo. Particulars: for ED50: Rattus norvegicus, sc, read-out: Apomorphine antagonism ED 50%, female Sprague-Dawley rats, 1.5 mg of apomorphine/kg s.c., dose which reduces number of jaw movements by 50%; for Apomorphine-antagonistic effect (in words): result in words. The protocol: 4. Apomorphine-antagonistic effect
Jaw motions are triggered in groups of 4-6 female Sprague-Dawley rats by subcutaneous administration of 1.5 mg of apomorphine/kg, and are recorded by means of implanted electrodes (KUBACKI mandibulogram, 1978).

Series [5] has as its system female NMRI mice. The experiment in a line: Sedative effect: orientation hypermotility in a new environment, measured photoelectrically. The series is classed as in vivo. Particulars: for ED50: Mus musculus, 0.5 h, read-out: Sedative effect ED 50%, oral, female NMRI mice, dose which reduces orientation hypermotility by 50% vs untreated controls, 30 min after administration; for Sedative effect (in words): result in words. The protocol: The substances are administered orally to groups of 4×3 or 8×3 female NMRI mice. The orientation hypermotility induced by a new environment is determined photoelectrically, 30 minutes after the administration of the substances, for a period of 30 minutes.

Setting [6] is: intraperitoneal, female NMRI mice, dose which causes death of 50% of animals.

With `CN1CCN(C2=Nc3ccccc3C(=CC#N)c3ccccc32)CC1` (mixture of isomers) [Example 17 (cis-trans mixture), cis,trans-11-cyanomethylene-6-(4-methyl-piperazin-1-yl)-morphanthridine], the LD50 in series [1] is 121 mg/kg. In series [2], the ED50 came to 6.26 mg/kg; the “Anti-cholinergic effect (in words)” value is “manifests itself especially; also recorded: more strongly sedative and anti-cholinergic”. Further, in series [3], the “Analgesic effect (in words)” value is “not analgesically active”. In series [4], the ED50 came to 22 mg/kg and the “Apomorphine-antagonistic effect (in words)” value is reported as “somewhat weaker than that of Clozapin”. Moreover, in series [5], the ED50 turned out to be 2.78 mg/kg and the “Sedative effect (in words)” value is “relatively strong sedative effects; also recorded: more strongly sedative”.
With `Cc1ccc2c(c1)N=C(N1CCN(C)CC1)c1ccccc1C2=CC#N` (mixture of isomers) [Example 30 (cis-trans mixture), cis,trans-3-Methyl-11-cyanomethylene-6-(4-methylpiperazin-1-yl)-morphanthridine], the LD50 in series [1] (setting [6]) is 178 mg/kg. For the same molecule, in series [2], the ED50 was 31.2 mg/kg, the “Anti-cholinergic effect R.A. (relative activity)” value turned out to be 0.45 and the “Anti-cholinergic effect (in words)” value is listed as “moderate anti-cholinergic effect”. Further, the “Analgesic effect (in words)” value in series [3] is recorded as “An analgesic effect is found; also recorded: stronger analgesic effect”. Besides, in series [4], the ED50 came out at 35 mg/kg. In series [5], the ED50 was 0.804 mg/kg; the “Sedative effect (in words)” value was “strong sedative effects; also recorded: high sedative activity (greater than that of Clozapin and Perlapin)”.
For `Cc1ccc2c(c1)C(=CC#N)c1ccccc1C(N1CCN(C)CC1)=N2` (mixture of isomers) [Example 31 (cis-trans mixture), cis,trans-2-Methyl-11-cyanomethylene-6-(4-methylpiperazin-1-yl)-morphanthridine], in series [1] (setting [6]), the LD50 amounted to 50 mg/kg. Moreover, in series [2], the ED50 turned out to be 2.74 mg/kg and the “Anti-cholinergic effect (in words)” value is “manifests itself especially”. Besides, the ED50 in series [4] was found to be 42 mg/kg. Also, in series [5], the ED50 is 3.35 mg/kg and the “Sedative effect (in words)” value is “relatively strong sedative effects”.
As for `CCN1CCN(C2=Nc3ccccc3C(=CC#N)c3ccccc32)CC1` (mixture of isomers) [Example 36 (cis-trans mixture), cis,trans-11-Cyanomethylene-6-(4-ethyl-piperazin-1-yl)-morphanthridine], the LD50 in series [1] worked out at 100 mg/kg. Further, in series [2], the ED50 was 7.8 mg/kg and the “Anti-cholinergic effect (in words)” value is “manifests itself especially”. In series [4], the ED50 came out at 43 mg/kg. In series [5], the ED50 stood at 3.34 mg/kg and the “Sedative effect (in words)” value is “relatively strong sedative effects”.
On to `N#CC=C1c2ccccc2N=C(N2CCCNCC2)c2ccccc21` (mixture of isomers) [Example 37 (cis-trans mixture), cis,trans-11-Cyanomethylene-6-homopiperazin-1-yl-morphanthridine.HCl.H2 O], for which the LD50 in series [1] (setting [6]) came out at 69.8 mg/kg. Also, in series [2], the ED50 is 5.49 mg/kg, the “Anti-cholinergic effect R.A. (relative activity)” value came to 2.57 and the “Anti-cholinergic effect (in words)” value is “manifests itself especially”. The ED50 in series [4] was more than 100 mg/kg. In addition, the ED50 in series [5] was more than 21.5 mg/kg.
For the molecule `C[N+]1([O-])CCN(C2=Nc3ccccc3C(=CC#N)c3ccccc32)CC1` (mixture of isomers) [Example 44 (cis-trans mixture), cis,trans-11-Cyanomethylene-6-(4-methyl-4-oxy-piperazin-1-yl)-morphanthridine.2H2 O], in series [1] (setting [6]), the LD50 is 464 mg/kg. Moreover, in series [2], the ED50 is 1.98 mg/kg, the “Anti-cholinergic effect R.A. (relative activity)” value was found to be 7.12 and the “Anti-cholinergic effect (in words)” value was “manifests itself especially”. Moreover, in series [4], the ED50 was 85 mg/kg. Also, the ED50 in series [5] was found to be 14.3 mg/kg.
With `CN1CCN(C2=Nc3cc(Cl)ccc3Nc3ccccc32)CC1` [Clozapin, reference compound], the LD50 in series [1] (setting [6]) came to 215 mg/kg. Further, the figures for the ED50 in series [2], in series [4] and in series [5] were 14.1 mg/kg, 8 mg/kg and 4.74 mg/kg, respectively. Further, the “Anti-cholinergic effect R.A. (relative activity)” value in series [2] is given as 1.00.
In the case of `CN1CCN(C2=Nc3ccccc3/C(=C/C#N)c3ccccc32)CC1` [Example 17 (cis-isomer), cis 11-cyanomethylene-6-(4-methylpiperazin-1-yl)-morphanthridine], the LD50 in series [1] worked out at 147 mg/kg. In series [2], the ED50 was determined as 17.4 mg/kg and the “Anti-cholinergic effect (in words)” value was “relative to Clozapin, an approximately comparable anti-cholinergic effect”. Also, in series [4], the ED50 was found to be 46 mg/kg and the “Apomorphine-antagonistic effect (in words)” value is recorded as “lower apomorphine-antagonistic effect”. In addition, in series [5], the ED50 amounted to 1.98 mg/kg and the “Sedative effect (in words)” value is on record as “strong sedative effects; also recorded: responsible for the sedative effect”.
`CN1CCN(C2=Nc3ccccc3/C(=C\C#N)c3ccccc32)CC1` [Example 17 (trans-isomer), trans-11-cyanomethylene-6-(4-methyl-piperazin-1-yl)-morphanthridine]: the LD50 in series [1] (setting [6]) amounted to 332 mg/kg. Moreover, in series [2], the ED50 was determined as 4.7 mg/kg; the “Anti-cholinergic effect (in words)” value is “manifests itself especially; also recorded: particularly exhibits an anti-cholinergic and apomorphine-antagonistic effect”. In series [4], the ED50 was found to be 12 mg/kg; the “Apomorphine-antagonistic effect (in words)” value was “particularly exhibits an anti-cholinergic and apomorphine-antagonistic effect”. Also, in series [5], the ED50 is more than 21.5 mg/kg and the “Sedative effect (in words)” value is “very slight”.
As for `Cc1ccc2c(c1)N=C(N1CCN(C)CC1)c1ccccc1/C2=C\C#N` [Example 30 (cis-isomer), cis-3-methyl-11-cyanomethylene-6-(4-methyl-piperazin-1-yl)-morphanthridine], the LD50 in series [1] turned out to be 287 mg/kg. Further, the “Analgesic effect (in words)” value in series [3] is “substantially more active than Clozapin; also recorded: strong sedative and strong analgesic effects”. For the same molecule, in series [4], the ED50 was 85 mg/kg; the “Apomorphine-antagonistic effect (in words)” value is “weaker apomorphine-antagonistic effect than that of Clozapin and Perlapin”. In series [5], the ED50 worked out at 1.06 mg/kg; the “Sedative effect (in words)” value is “strong sedative and strong analgesic effects”.
As to `Cc1ccc2c(c1)N=C(N1CCN(C)CC1)c1ccccc1/C2=C/C#N` [Example 30 (trans-isomer), trans-3-methyl-11-cyanomethylene-6-(4-methylpiperazin-1-yl)-morphanthridine], in series [1] (setting [6]), the LD50 was more than 100 mg/kg. In series [2], the ED50 was 12.3 mg/kg; the “Anti-cholinergic effect (in words)” value was “stronger anti-cholinergic and apomorphine-antagonistic effect”. In series [4], the ED50 is 19 mg/kg; the “Apomorphine-antagonistic effect (in words)” value is “stronger anti-cholinergic and apomorphine-antagonistic effect”. Besides, in series [5], the ED50 turned out to be 33.6 mg/kg and the “Sedative effect (in words)” value was “little or no sedative effect”.
As to `CCN1CCN(C2=Nc3ccccc3/C(=C\C#N)c3ccccc32)CC1` [Example 36 (trans-isomer), trans-11-cyanomethylene-6-(4-ethyl-piperazin-1-yl)-morphanthridine], in series [1] (setting [6]), the LD50 is more than 100 mg/kg. For the same molecule, in series [2], the ED50 amounted to 5.6 mg/kg; the “Anti-cholinergic effect (in words)” value is “manifests itself especially; also recorded: stronger anti-cholinergic and apomorphine-antagonistic effect”. Further, in series [4], the ED50 was 22 mg/kg; the “Apomorphine-antagonistic effect (in words)” value was “stronger anti-cholinergic and apomorphine-antagonistic effect”. Further, in series [5], the ED50 is more than 100 mg/kg and the “Sedative effect (in words)” value was “little or no sedative effect”.
Take `C[N+]1([O-])CCN(C2=Nc3ccccc3/C(=C/C#N)c3ccccc32)CC1` [Example 44 (cis-isomer), cis-11-cyanomethylene-6-(4-methyl-4-oxy-piperazin-1-yl)-morphanthridine]: the LD50 in series [1] (setting [6]) is 261 mg/kg. The ED50 in series [2] was 100 mg/kg; in series [4], more than 100 mg/kg; in series [5], 17.6 mg/kg. Moreover, in series [2], the “Anti-cholinergic effect R.A. (relative activity)” value turned out to be 0.14.
`C[N+]1([O-])CCN(C2=Nc3ccccc3/C(=C\C#N)c3ccccc32)CC1` [Example 44 (trans-isomer), trans-11-cyanomethylene-6-(4-methyl-4-oxy-piperazin-1-yl)-morphanthridine]: the LD50 in series [1] (setting [6]) is 559 mg/kg. In series [2], the ED50 worked out at 3.74 mg/kg; the “Anti-cholinergic effect R.A. (relative activity)” value is recorded as 3.77; the “Anti-cholinergic effect (in words)” value was “manifests itself especially; also recorded: stronger anti-cholinergic and apomorphine-antagonistic effect”. In series [4], the ED50 came out at 25 mg/kg; the “Apomorphine-antagonistic effect (in words)” value is “stronger anti-cholinergic and apomorphine-antagonistic effect”. For the same molecule, in series [5], the ED50 turned out to be 100 mg/kg and the “Sedative effect (in words)” value was “little or no sedative effect”.
